Literature values in patent US20160317408A1, “KERATIN FIBRE DYEING METHOD” (ALFA PARF GROUP S.p.A., priority 2015, published 2016).

Legend:
[1] = value assigned from SCCS memorandum class; composition containing the dye
[2] = SCCS Opinion 1509/13, Memorandum on hair dye chemical sensitisation

Structure (SMILES)	individual sensitisation index value of the dye [1]	sensitising power classification [2]
Nc1ccc(OCCO)c(N)c1 [2,4-diaminophenoxyethanol]	2	Moderate
Nc1ncccc1O [2-Amino-3-hydroxypyridine]		not classifiable
Cc1c(O)cccc1O [2-methylresorcinol]	2	Moderate
Oc1ccc(Cl)c(O)c1 [4-chlororesorcinol]	2	Moderate
Nc1ccc(N(CCO)CCO)cc1 [N,N-bis(2-hydroxyethyl)-p-phenylenediamine]	1	Strong
Nc1ccc(NCCO)cc1 [hydroxyethyl-p-phenylenediamine]		Strong
Nc1ccc(N)cc1 [p-phenylenediamine]	0	Extreme
Oc1cccc(O)c1 [resorcinol]		Strong
